# Data from US8952024B2, “Herbicidal pyrimidone derivatives” (E I du Pont de Nemours and Company, priority 2009, dated 2015).
# Columns and labels:
# Experiment in all cases: Test B pre-/postemergence plant response
# Type in all cases: in vivo
# [1] = test system: johnsongrass (Sorghum halepense)
# Excerpt: (§1) Seeds of plant species selected from blackgrass (Alopecurus myosuroides), downy bromegrass (Bromus tectorum), green foxtail (Setaria viridis), Italian ryegrass (Lolium multiflorum), wheat (Triticum aestivum), wild oat (Avena fatua), deadnettle (henbit deadnettle, Lamium amplexicaule), galium (catchweed bedstraw, Galium aparine), bermudagrass (Cynodon dactylon), Surinam grass (Brachiaria decumbens), cocklebur (Xanthium strumarium), corn (Zea mays), large crabgrass (Digitaria sanguinalis), woolly cupgrass (Eriochloa villosa), giant foxtail (Setaria faberii), goosegrass (Eleusine indica), johnsongrass (Sorghum halepense), kochia (Kochia scoparia), lambsquarters (Chenopodium album), morningglory (Ipomoea coccinea), nightshade (eastern black nightshade, Solanum ptycanthum), yellow nutsedge (Cyperus esculentus), pigweed (Amaranthus retroflexus), ragweed (common ragweed, Ambrosia elatior), Russian thistle (Salsola kali), soybean (Glycine max), sunflower (common oilseed sunflower, Helianthus annuus) and velvetleaf (Abutilon theophrasti) were planted into a blend of loam soil and sand and treated preemergence with test compounds formulated in a non-phytotoxic solvent mixture which included a surfactant.
# (§2) At the same time, plants selected from these crop and weed species and also winter barley (Hordeum vulgare), canarygrass (Phalaris minor), chickweed (Stellaria media) and windgrass (Apera spica-venti) were planted in pots containing Redi-Earth® planting medium (Scotts Company, 14111 Scottslawn Road, Marysville, Ohio 43041) comprising spaghnum peat moss, vermiculite, wetting agent and starter nutrients and treated with postemergence applications of some of the test chemicals formulated in the same manner. Plants ranged in height from 2 to 18 cm (1- to 4-leaf stage) for postemergence treatments.
# (§3) Treated plants and controls were maintained in a greenhouse for 13 to 15 days, after which time all treated plants were visually evaluated and compared to controls. Plant response ratings, summarized in Table B, are based on a scale of 0 to 100 where 0 is no effect and 100 is complete control. A dash (-) response means no test result.
# kochia (Kochia scoparia) = test system: kochia (Kochia scoparia)
# Excerpt: as §1, §2, §3
# [2] = test system: large crabgrass (Digitaria sanguinalis)
# Excerpt: as §1, §2, §3
# [3] = test system: morningglory (Ipomoea coccinea)
# Excerpt: as §1, §2, §3
# soybean (Glycine max) = test system: soybean (Glycine max)
# Excerpt: as §1, §2, §3
# [4] = test system: velvetleaf (Abutilon theophrasti)
# Excerpt: as §1, §2, §3
# wild oat (Avena fatua) = test system: wild oat (Avena fatua)
# Excerpt: as §1, §2, §3
# [5] = test system: woolly cupgrass (Eriochloa villosa)
# Excerpt: as §1, §2, §3
# [6] = test system: yellow nutsedge (Cyperus esculentus)
# Excerpt: as §1, §2, §3
# [7] = Postemergence, 250 g ai/ha, scale 0 to 100
# [8] = Preemergence, 31 g ai/ha, scale 0 to 100 (0 no effect, 100 complete control)
# [9] = Preemergence, 62 g ai/ha, scale 0 to 100, 0 no effect, 100 complete control
# [10] = Preemergence, 125 g ai/ha, 0 to 100 scale
# [11] = 250 g ai/ha, Preemergence, 0 to 100 scale
# [12] = Postemergence, 31 g ai/ha, scale 0 to 100 (0 no effect, 100 complete control)
# [13] = Postemergence, 62 g ai/ha, scale 0 (no effect) to 100 (complete control), 13 to 15 days
# [14] = Postemergence, 125 g ai/ha, visual rating after 13 to 15 days, scale 0 (no effect) to 100 (complete control)
substance,measurement,setting,value
5-[(2-hydroxy-6-oxo-1-cyclohexen-1-yl)carbonyl]-3-phenyl-2-(3-pyridinyl)-4(3H)-pyrimidone [Compound 113],Johnsongrass plant response rating,[1]; [7],0
same,"Plant response rating, Johnsongrass",[1]; [8],0
same,"Plant response rating, Johnsongrass",[1]; [9],0
same,Johnsongrass plant response rating,[1]; [10],0
same,"Plant response rating, Kochia",kochia (Kochia scoparia); [11],100
same,"Plant response rating, Kochia",kochia (Kochia scoparia); [12],0
same,"Plant response rating, Kochia",kochia (Kochia scoparia); [13],45
same,"Plant response rating, Kochia",kochia (Kochia scoparia); [14],45
same,Kochia plant response rating,kochia (Kochia scoparia); [7],50
same,"Plant response rating, Kochia",kochia (Kochia scoparia); [8],15
same,"Plant response rating, Kochia",kochia (Kochia scoparia); [9],100
same,Kochia plant response rating,kochia (Kochia scoparia); [10],100
same,"Plant response rating, Crabgrass, Large",[2]; [11],95
same,"Plant response rating, Crabgrass, Large",[2]; [12],30
same,"Plant response rating, Crabgrass, Large",[2]; [13],45
same,"Plant response rating, Crabgrass, Large",[2]; [14],45
same,"Crabgrass, Large plant response rating",[2]; [7],60
same,"Plant response rating, Crabgrass, Large",[2]; [8],0
same,"Plant response rating, Crabgrass, Large",[2]; [9],0
same,"Crabgrass, Large plant response rating",[2]; [10],45
same,"Plant response rating, Morningglory",[3]; [11],20
same,"Plant response rating, Morningglory",[3]; [12],15
same,"Plant response rating, Morningglory",[3]; [13],15
same,"Plant response rating, Morningglory",[3]; [14],15
same,Morningglory plant response rating,[3]; [7],20
same,"Plant response rating, Morningglory",[3]; [9],0
same,Morningglory plant response rating,[3]; [10],0
same,"Plant response rating, Soybean",soybean (Glycine max); [11],30
same,"Plant response rating, Soybean",soybean (Glycine max); [12],60
same,"Plant response rating, Soybean",soybean (Glycine max); [13],65
same,"Plant response rating, Soybean",soybean (Glycine max); [14],75
same,Soybean plant response rating,soybean (Glycine max); [7],85
same,"Plant response rating, Soybean",soybean (Glycine max); [8],0
same,"Plant response rating, Soybean",soybean (Glycine max); [9],0
same,Soybean plant response rating,soybean (Glycine max); [10],20
same,"Plant response rating, Velvetleaf",[4]; [11],100
same,"Plant response rating, Velvetleaf",[4]; [12],70
same,"Plant response rating, Velvetleaf",[4]; [13],80
same,"Plant response rating, Velvetleaf",[4]; [14],90
same,Velvetleaf plant response rating,[4]; [7],98
same,"Plant response rating, Velvetleaf",[4]; [8],40
same,"Plant response rating, Velvetleaf",[4]; [9],85
same,Velvetleaf plant response rating,[4]; [10],100
same,"Plant response rating, Oat, Wild",wild oat (Avena fatua); [11],0
same,"Plant response rating, Oat, Wild",wild oat (Avena fatua); [12],0
same,"Plant response rating, Oat, Wild",wild oat (Avena fatua); [13],0
same,"Plant response rating, Oat, Wild",wild oat (Avena fatua); [14],0
same,"Oat, Wild plant response rating",wild oat (Avena fatua); [7],10
same,"Plant response rating, Oat, Wild",wild oat (Avena fatua); [8],0
same,"Plant response rating, Oat, Wild",wild oat (Avena fatua); [9],0
same,"Oat, Wild plant response rating",wild oat (Avena fatua); [10],0
same,"Plant response rating, Cupgrass, Woolly",[5]; [11],45
same,"Plant response rating, Cupgrass, Woolly",[5]; [12],0
same,"Plant response rating, Cupgrass, Woolly",[5]; [13],50
same,"Plant response rating, Cupgrass, Woolly",[5]; [14],50
same,"Cupgrass, Woolly plant response rating",[5]; [7],65
same,"Plant response rating, Cupgrass, Woolly",[5]; [8],0
same,"Plant response rating, Cupgrass, Woolly",[5]; [9],0
same,"Cupgrass, Woolly plant response rating",[5]; [10],0
same,"Plant response rating, Nutsedge, Yellow",[6]; [11],55
same,"Plant response rating, Nutsedge, Yellow",[6]; [12],0
same,"Plant response rating, Nutsedge, Yellow",[6]; [13],0
same,"Plant response rating, Nutsedge, Yellow",[6]; [14],0
same,"Nutsedge, Yellow plant response rating",[6]; [7],0
same,"Plant response rating, Nutsedge, Yellow",[6]; [8],0
same,"Plant response rating, Nutsedge, Yellow",[6]; [9],10
same,"Nutsedge, Yellow plant response rating",[6]; [10],15
